{"source": "patent US20070276030A1", "about": "“Pyranobenzothiophene derivatives to treat infection with hepatitis c virus” (priority 2003, published 2007)", "key": {"[1]": {"molecular_target": "T1, HCV RdRp NS5B d21BK (BK strain, genotype 1b) (Hepatitis C virus genotype 1b, UniProt P26663)", "T1 construct": "NS5B from the BK strain (genotype 1b) is expressed in E. coli as a protein in which the 21 C-terminal amino acids are replaced; made in house; host or cells: E. coli", "T1 sequence (P26663 2420-2989)": "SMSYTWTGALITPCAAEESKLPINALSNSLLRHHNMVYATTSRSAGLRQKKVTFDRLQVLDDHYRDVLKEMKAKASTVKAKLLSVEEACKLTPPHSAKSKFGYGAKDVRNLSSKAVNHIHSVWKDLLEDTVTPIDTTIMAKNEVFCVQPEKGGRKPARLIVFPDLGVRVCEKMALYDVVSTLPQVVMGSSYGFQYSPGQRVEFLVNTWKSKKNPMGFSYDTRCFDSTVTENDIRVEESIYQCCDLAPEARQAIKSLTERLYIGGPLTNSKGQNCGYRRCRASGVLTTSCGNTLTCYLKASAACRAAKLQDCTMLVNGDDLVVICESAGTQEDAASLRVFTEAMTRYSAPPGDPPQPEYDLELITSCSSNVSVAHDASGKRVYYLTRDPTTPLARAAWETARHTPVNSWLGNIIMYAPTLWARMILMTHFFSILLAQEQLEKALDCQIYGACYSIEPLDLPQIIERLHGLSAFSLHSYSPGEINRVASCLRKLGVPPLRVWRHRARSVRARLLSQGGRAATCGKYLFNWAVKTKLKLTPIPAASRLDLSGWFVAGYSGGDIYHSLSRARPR", "test": "Hepatitis C polymerase (NS5B) inhibition, radioactive filter assay", "format": "biochemical", "details": "for inhibition at 20 µM: read-out: HCV pol % inh at 20 μM", "from_the_text": "The ability of the compounds of the present invention to inhibit Hepatitis C Polymerase was established by the following experimental procedure:\nNS5B from the BK strain (genotype 1b) is expressed in E. coli as a protein in which the 21 C-terminal amino acids are replaced with a short linker and a hexahistidine tag ([…]). The purified protein is mixed with radioactive nucleotides and allowed to replicate a heteropolymeric RNA substrate, primed by an endogenous short hairpin, resulting in an approximately 760 nt product. The radioactive product is captured on a filter and quantitated after removal of the unincorporated nucleotides.\nDilute nucleotides 1:1000 to 10 μM (GTP and CTP) or 1:100 to 100 μM (ATP and UTP) into RNase free water.\n(1) Compounds 10 μl at 10 μg/ml in 15% Dimethylsulfoxide (DMSO)\nAdd 20 μl enzyme mix into each well of the assay plate. Incubate compound and enzyme at room temperature for 15 minutes.\n(3) Template Mix—Prepare Ahead\nSpin down a tube of RNA (5 μg/tube stored in 75% ethanol and 0.3 M sodium acetate) in a microcentrifuge for 20 minutes at 4° C. One tube is enough for 1-1.5 plates. Remove as much ethanol from the tube as possible by inverting the tube. Be gentle, pellet RNA may not adhere to the tube. Vacuum dry the RNA. Resuspend the RNA by adding 1 ml of DEPC water, close the cap of the tube tightly. To dissolve RNA, incubate RNA solution on ice for ˜60 minutes and gently vortex. Spin briefly to ensure all RNA solution is down to the bottom of the tube before opening cap. Gently transfer RNA solution into a 5 ml or larger tube. Add another 3 ml of DEPC water (total 4 ml of volume).\nAdd the following volumes of reagents\nAdd 20 μl template mix per reaction (i.e. 20 ng of pOF per reaction or ˜3 nM). (4) Incubate reaction at room temperature (22-25° C.) for 2 hours. (5) Stop reaction by adding 50 μl of 170 mM EDTA.\nFinal concentration of EDTA is 85 mM.\n(6) Prewet filters of Millipore multiscreen assay plate by adding […] of 0.5 M sodium phosphate buffer, pH 7.0 into each well. Let stand at room temperature for 2-3 minutes.\n(7) Place the multiscreen filter plate onto a Millipore Manifold and turn on vacuum to allow buffer to flow through. Turn off vacuum. Transfer 80 μl of the reaction product into each well of the filter plate. Let stand for 2-3 minutes. Turn on vacuum to filter reaction product.\n(8) Turn off vacuum. Add 200 μl of 0.5 M sodium phosphate buffer, pH 7.0 into each well to wash filter. Turn on vacuum.\nRepeat step (8) three more times.\n(9) Remove polypropylene bottom. Spot dry filter at the bottom with paper towel. Air dry filter plate on a bench for 1 hour. Add 40 μl Super Mix scintillant. Seal top of the plate with a tape. Place plate into a Packard carrier or micro-beta carrier.\n(10) Count plate using a Packard Topcount or micro-beta counter. Count (for example using Program 10) for ^33P in Top count or ^33P program in micro-beta.\nPercent inhibition is calculated after background subtraction as a percent reduction of activity relative to the positive control (average value of the plate excluding the negative controls). For the primary screen hits were chosen as showing ≧75% inhibition.\nSee. Ferrari et al. 1999. J. Virology 73:1649-1654: “Characterization of soluble Hepatitis C virus RNA-dependent RNA polymerase expressed in E. coli and Takamizawa et all 1991” and J. Virology 65:1105-1113: “Structure and characterization of the Hepatitis C virus genome isolated from human carriers,” both references are hereby incorporated by reference in their entireties, specifically methods of testing inhibition of Hepatitis C Polymerase with test compounds."}, "[2]": {"details": "U.S. Pat. No. 4,021,451; cited from earlier work"}}, "note": "Read-outs that look alike come from different tables or passages of the source.", "data": [{"smiles": "O=C(O)CC1(c2ccccc2)OCCc2c1sc1ccccc21", "note": "(stereo not drawn) [Example 17, (1-phenyl-3,4-dihydro-1H-[1]benzothieno[2,3-c]pyran-1-yl)acetic acid]", "values": [{"measurement": "IC50", "setting": "[1]", "result": "> 20", "unit": "µM"}, {"measurement": "inhibition at 20 µM", "setting": "[1]", "result": 27, "unit": "%"}]}, {"smiles": "CCOC(=O)CC1(CC(=O)O)OCCc2c1sc1ccccc21", "note": "(stereo not drawn) [Example 19, [1-(2-ethoxy-2-oxoethyl)-3,4-dihydro-1H-[1]benzothieno[2,3-c]pyran-1-yl]acetic acid]", "values": [{"measurement": "IC50", "setting": "[1]", "result": "> 20", "unit": "µM"}, {"measurement": "inhibition at 20 µM", "setting": "[1]", "result": "< 10", "unit": "%"}]}, {"smiles": "CC1(c2ccc(CC(=O)O)cc2)OCCc2c1sc1ccccc21", "note": "(stereo not drawn) [[p-(3,4-dihydro-1-methyl-1H-[1]benzothieno[2,3-c]pyran-1-yl)phenyl]-acetic acid]", "values": [{"measurement": "biological activity such as antiinflammatory or antibacterial or antifungal activity", "setting": "[2]", "result": "lacks any biological activity"}]}, {"smiles": "CCC[C@]1(CC(=O)O)OCCc2c1sc1c(C)ccc(C#N)c21", "note": "[Example 3, [(1R)-5-cyano-8-methyl-1-propyl-3,4-dihydro-1H-[1]benzothieno[2,3-c]pyran-1-yl]acetic acid]", "values": [{"measurement": "IC50", "setting": "[1]", "result": 0.62, "unit": "µM"}]}, {"smiles": "CCC1(CC(=O)O)OCCc2c1sc1c(Cl)ccc(Cl)c21", "note": "(stereo not drawn) [Example 8, (5,8-dichloro-1-ethyl-3,4-dihydro-1H-[1]benzothieno[2,3-c]pyran-1-yl)acetic acid]", "values": [{"measurement": "IC50", "setting": "[1]", "result": 0.17, "unit": "µM"}]}, {"smiles": "CC1(CC(=O)O)OCCc2c1sc1c(Cl)ccc(Cl)c21", "note": "(stereo not drawn) [Example 6, (5,8-chloro-1-methyl-3,4-dihydro-1H-[1]benzothieno[2,3-c]pyran-1-yl)acetic acid]", "values": [{"measurement": "IC50", "setting": "[1]; NS5B BK strain, read-out: HCV pol BK IC50", "result": 0.28, "unit": "µM"}]}, {"smiles": "CCCCC1(CC(=O)O)OCCc2c1sc1c(Cl)ccc(Cl)c21", "note": "(stereo not drawn) [Example 7, (1-butyl-5,8-dichloro-3,4-dihydro-1H-[1]benzothieno[2,3-c]pyran-1-yl)acetic acid]", "values": [{"measurement": "IC50", "setting": "[1]", "result": 0.32, "unit": "µM"}]}, {"smiles": "CCC[C@@]1(CC(=O)O)OCCc2c1sc1c(C)ccc(C#N)c21", "note": "[Example 4, [(1S)-5-cyano-8-methyl-1-propyl-3,4-dihydro-1H-[1]benzothieno[2,3-c]pyran-1-yl]acetic acid]", "values": [{"measurement": "IC50", "setting": "[1]", "result": 1.9, "unit": "µM"}]}, {"smiles": "CCCC1(CC(=O)O)OCCc2c1sc1c(Cl)ccc(Cl)c21", "note": "(stereo not drawn) [Example 5, (5,8-dichloro-1-propyl-3,4-dihydro-1H-[1]benzothieno[2,3-c]pyran-1-yl)acetic acid]", "values": [{"measurement": "IC50", "setting": "[1]", "result": "> 20", "unit": "µM"}, {"measurement": "inhibition at 20 µM", "setting": "[1]", "result": "< 10", "unit": "%"}]}, {"smiles": "CC1(CC(=O)O)OCCc2c1sc1ccccc21", "note": "(stereo not drawn) [Example 13, (1-methyl-3,4-dihydro-1H-[1]benzothieno[2,3-c]pyran-1-yl)acetic acid]", "values": [{"measurement": "IC50", "setting": "[1]", "result": "> 20", "unit": "µM"}, {"measurement": "inhibition at 20 µM", "setting": "[1]", "result": "< 10", "unit": "%"}]}, {"smiles": "CCCC1(CC(=O)O)OCCc2c1sc1c(C)ccc(Br)c21", "note": "(stereo not drawn) [Example 1, (5-bromo-8-methyl-1-propyl-3,4-dihydro-1H-[1]benzothieno[2,3-c]pyran-1-yl)acetic acid]", "values": [{"measurement": "IC50", "setting": "[1]", "result": 0.18, "unit": "µM"}]}, {"smiles": "CCC[C@@]1(CC(=O)O)OCCc2c1sc1c(C)cc(F)c(C#N)c21", "note": "[Example 12, [(1S)-5-cyano-6-fluoro-8-methyl-1-propyl-3,4-dihydro-1H-[1]benzothieno[2,3-c]pyran-1-yl]acetic acid]", "values": [{"measurement": "IC50", "setting": "[1]", "result": 5.4, "unit": "µM"}]}, {"smiles": "CCCC1(CC(=O)O)OCCc2c1sc1c(C)ccc(C#N)c21", "note": "(stereo not drawn) [Example 2, (5-cyano-8-methyl-1-propyl-3,4-dihydro-1H-[1]benzothieno[2,3-c]pyran-1-yl)acetic acid]", "values": [{"measurement": "IC50", "setting": "[1]", "result": 17.7, "unit": "µM"}]}, {"smiles": "CCCCC1(CC(=O)O)OCCc2c1sc1ccccc21", "note": "(stereo not drawn) [Example 16, (1-butyl-3,4-dihydro-1H-[1]benzothieno[2,3-c]pyran-1-yl)acetic acid]", "values": [{"measurement": "IC50", "setting": "[1]", "result": "> 20", "unit": "µM"}, {"measurement": "inhibition at 20 µM", "setting": "[1]", "result": "< 10", "unit": "%"}]}, {"smiles": "CCC1(CC(=O)O)OCCc2c1sc1ccccc21", "note": "(stereo not drawn) [Example 14, (1-ethyl-3,4-dihydro-1H-[1]benzothieno[2,3-c]pyran-1-yl)acetic acid]", "values": [{"measurement": "IC50", "setting": "[1]", "result": "> 20", "unit": "µM"}, {"measurement": "inhibition at 20 µM", "setting": "[1]", "result": "< 10", "unit": "%"}]}, {"smiles": "CCCC1(CC(=O)O)OCCc2c1sc1ccccc21", "note": "(stereo not drawn) [Example 15, (1-propyl-3,4-dihydro-1H-[1]benzothieno[2,3-c]pyran-1-yl)acetic acid]", "values": [{"measurement": "IC50", "setting": "[1]", "result": "> 20", "unit": "µM"}, {"measurement": "inhibition at 20 µM", "setting": "[1]", "result": "< 10", "unit": "%"}]}, {"smiles": "CCCC1(CC(=O)O)OCCc2c1sc1c(C)cc(F)c(C#N)c21", "note": "(stereo not drawn) [Example 10, (5-cyano-6-fluoro-8-methyl-1-propyl-3,4-dihydro-1H-[1]benzothieno[2,3-c]pyran-1-yl)acetic acid]", "values": [{"measurement": "IC50", "setting": "[1]", "result": 0.13, "unit": "µM"}]}, {"smiles": "CC(C)C1(CC(=O)O)OCCc2c1sc1ccccc21", "note": "(stereo not drawn) [Example 18, (1-isopropyl-3,4-dihydro-1H-[1]benzothieno[2,3-c]pyran-1-yl)acetic acid]", "values": [{"measurement": "IC50", "setting": "[1]", "result": "> 20", "unit": "µM"}, {"measurement": "inhibition at 20 µM", "setting": "[1]", "result": "< 10", "unit": "%"}]}, {"smiles": "CCCC1(CC(=O)O)OCCc2c1sc1c(C)cc(F)cc21", "note": "(stereo not drawn) [Example 9, (6-fluoro-8-methyl-1-propyl-3,4-dihydro-1H-[1]benzothieno[2,3-c]pyran-1-yl)acetic acid]", "values": [{"measurement": "IC50", "setting": "[1]", "result": 2.9, "unit": "µM"}]}]}
